The supplement of paper PMC10307832

How the values were obtained:
Experiment in all cases: relative viability (nuclei count vs DMSO), 5 days (fraction); higher = more cells survive
[1] = compound: COc1cc([C@@H]2c3cc4c(cc3[C@@H](O[C@@H]3O[C@@H]5CO[C@@H](C)O[C@H]5[C@H](O)[C@H]3O)[C@H]3COC(=O)[C@H]23)OCO4)cc(OC)c1O [Etoposide] + CC(=O)c1c(C)c2cnc(Nc3ccc(N4CCNCC4)cn3)nc2n(C2CCCC2)c1=O [Palbociclib] (partner 0.5 µM)
In short: (§1)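 Dosing by pin tool came one day after lung cancer cell lines were seeded in 1536-well plates, using either one drug or a fixed anchor-drug dose plus five library-drug doses (not always all listed) in √10 steps. After 5 days, nuclei were counted on 4× images. Relative viability is treated-well nuclei count divided by vehicle-well nuclei count, and values are medians of duplicate plates.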

[2] = compound: CC1=C(N=C(N=C1N)[C@H](CC(=O)N)NC[C@@H](C(=O)N)N)C(=O)N[C@@H]([C@H](C2=CN=CN2)OC3C(C(C(C(O3)CO)O)O)OC4C(C(C(C(O4)CO)O)OC(=O)N)O)C(=O)N[C@H](C)[C@H]([C@H](C)C(=O)N[C@@H]([C@@H](C)O)C(=O)NCCC5=NC(=CS5)C6=NC(=CS6)C(=O)NCCC[S+](C)C)O [Bleomycin] + C[C@@H](Oc1cc(-c2cnn(C3CCNCC3)c2)cnc1N)c1c(Cl)ccc(F)c1Cl [Crizotinib] (partner 1 µM); settings: main component drawn
In short: as §1

[3] = compound: CC1=C(N=C(N=C1N)[C@H](CC(=O)N)NC[C@@H](C(=O)N)N)C(=O)N[C@@H]([C@H](C2=CN=CN2)OC3C(C(C(C(O3)CO)O)O)OC4C(C(C(C(O4)CO)O)OC(=O)N)O)C(=O)N[C@H](C)[C@H]([C@H](C)C(=O)N[C@@H]([C@@H](C)O)C(=O)NCCC5=NC(=CS5)C6=NC(=CS6)C(=O)NCCC[S+](C)C)O [Bleomycin] + C[C@]1(O)C[C@@H](c2nc(-c3ccc4ccc(-c5ccccc5)nc4c3)c3c(N)nccn32)C1 [Linsitinib] (partner 1 µM); settings: main component drawn
In short: as §1

[4] = compound: COc1cc([C@@H]2c3cc4c(cc3[C@@H](O[C@@H]3O[C@@H]5CO[C@@H](C)O[C@H]5[C@H](O)[C@H]3O)[C@H]3COC(=O)[C@H]23)OCO4)cc(OC)c1O [Etoposide] + Nc1ncn([C@H]2C[C@H](O)[C@@H](CO)O2)c(=O)n1 [Decitabine] (partner 2 µM)
In short: as §1

| Cell Line | relative viability ([1]; first compound 0.01 µM) | relative viability ([1]; first compound 0.03162 µM) | relative viability ([1]; first compound 0.1 µM) | relative viability ([1]; first compound 0.3162 µM) | relative viability ([1]; first compound 1 µM) | relative viability ([2]; first compound 0.01 µM) | relative viability ([2]; first compound 0.03162 µM) | relative viability ([2]; first compound 0.1 µM) | relative viability ([2]; first compound 0.3162 µM) | relative viability ([2]; first compound 1 µM) | relative viability ([3]; first compound 0.01 µM) | relative viability ([3]; first compound 0.03162 µM) | relative viability ([3]; first compound 0.1 µM) | relative viability ([3]; first compound 0.3162 µM) | relative viability ([3]; first compound 1 µM) | relative viability ([4]; first compound 0.01 µM) | relative viability ([4]; first compound 0.03162 µM) | relative viability ([4]; first compound 0.1 µM) | relative viability ([4]; first compound 0.3162 µM) | relative viability ([4]; first compound 1 µM) |
| --- | --- | --- | --- | --- | --- | --- | --- | --- | --- | --- | --- | --- | --- | --- | --- | --- | --- | --- | --- | --- |
| 201T | 0.366 | 0.35 | 0.325 | 0.349 | 0.385 | 0.997 | 0.947 | 0.902 | 0.843 | 0.784 | 0.959 | 1.05 | 1.05 | 1 | 0.83 | 0.835 | 0.886 | 0.758 | 0.641 | 0.384 |
| A549 |  |  |  |  |  | 0.601 | 0.562 | 0.339 | 0.0813 | 0.0619 | 0.514 | 0.472 | 0.384 | 0.0789 | 0.0779 | 0.24 | 0.326 | 0.195 | 0.114 | 0.0774 |
| A-427 | 0.51 | 0.479 | 0.486 | 0.378 | 0.282 | 0.738 | 0.776 | 0.67 | 0.402 | 0.223 | 0.999 | 1.08 | 1.05 | 0.893 | 0.266 | 0.54 | 0.549 | 0.477 | 0.354 | 0.275 |
| ABC-1 | 0.572 | 0.71 | 0.529 | 0.515 | 0.419 | 0.799 | 0.769 | 0.659 | 0.191 | 0.161 | 0.938 | 0.647 | 0.63 | 0.355 | 0.248 | 1.08 | 0.939 | 0.62 | 0.619 | 0.52 |
| BEN | 0.491 | 0.487 |  | 0.454 | 0.539 | 0.769 | 0.829 | 0.94 | 0.671 | 0.742 | 0.862 | 0.868 | 0.896 | 0.637 | 0.682 | 0.742 | 0.769 |  | 0.692 | 0.476 |
| CAL-12T | 0.346 | 0.505 | 0.299 | 0.306 | 0.285 | 0.356 | 0.405 | 0.25 | 0.15 | 0.192 | 0.623 | 0.49 | 0.258 | 0.156 | 0.176 |  |  |  |  |  |
| COR-L23 | 0.23 | 0.27 | 0.27 | 0.261 | 0.146 | 0.444 | 0.317 | 0.226 | 0.0998 | 0.099 | 0.696 | 0.559 | 0.307 | 0.106 | 0.102 | 0.407 | 0.471 | 0.337 | 0.377 | 0.176 |
| COR-L 105 | 0.423 | 0.41 | 0.383 | 0.394 | 0.366 | 0.587 | 0.875 | 0.52 | 0.368 | 0.364 | 0.765 | 0.798 | 0.708 | 0.393 | 0.317 | 0.616 | 0.613 | 0.567 | 0.605 | 0.569 |
| Calu-6 |  |  |  |  |  | 0.514 | 0.394 | 0.379 | 0.141 | 0.181 | 0.741 | 0.6 | 0.508 | 0.174 | 0.125 |  |  |  |  |  |
| ChaGo-K-1 | 0.929 | 0.952 | 0.682 | 0.289 | 0.222 |  | 0.999 | 0.754 | 0.385 | 0.333 |  |  |  |  |  | 0.448 | 0.546 | 0.397 | 0.291 | 0.229 |
| EBC-1 |  |  |  |  |  | 0.204 | 0.193 | 0.2 | 0.198 | 0.151 | 0.829 | 0.72 | 0.78 | 0.698 | 0.366 |  |  |  |  |  |
| EKVX | 0.358 | 0.434 | 0.21 | 0.375 | 0.282 | 0.87 | 0.803 | 0.7 | 0.448 | 0.316 | 0.909 | 0.822 | 0.859 | 0.375 | 0.336 | 0.281 | 0.351 | 0.282 | 0.31 | 0.229 |
| EMC-BAC-2 | 0.495 | 0.49 | 0.399 | 0.321 | 0.254 | 0.628 | 0.626 | 0.738 | 0.318 | 0.241 | 0.746 | 0.696 | 0.688 | 0.38 | 0.265 | 0.938 | 0.893 | 0.606 | 0.323 | 0.298 |
| EPLC-272H | 0.359 | 0.284 | 0.326 | 0.339 | 0.304 | 0.776 | 0.88 | 0.655 | 0.358 | 0.152 | 1.21 | 1.06 | 1.08 | 1.45 | 0.196 | 0.339 | 0.412 | 0.338 | 0.328 | 0.297 |
| H3255 | 0.331 | 0.334 | 0.351 | 0.315 | 0.281 | 0.61 | 0.742 | 0.55 | 0.378 | 0.287 | 0.702 | 0.879 | 0.902 | 0.538 | 0.387 | 0.547 | 0.94 | 0.417 | 0.474 | 0.318 |
| HARA | 0.242 | 0.335 | 0.245 | 0.269 | 0.203 | 0.938 | 0.952 | 0.974 | 0.54 | 0.36 | 0.944 | 1.02 | 0.887 | 0.457 | 0.467 | 0.556 | 0.578 | 0.573 | 0.399 | 0.301 |
| HCC-15 | 0.623 | 0.695 | 0.828 | 0.468 | 0.244 | 0.731 | 0.725 | 0.627 | 0.326 | 0.242 | 0.793 | 0.804 | 0.763 | 0.418 | 0.288 | 0.667 | 0.665 | 0.668 | 0.286 | 0.174 |
